Measured values from patent publication US20230374017A1, “COMPOSITIONS AND METHODS FOR ACTIVATING PYRUVATE KINASE” (The Regents of the University of Michigan, priority 2020, published 2023).

Legend:
human recombinant PKM2 = biological target: T1, human recombinant PKM2 (Homo sapiens, UniProt P14618); assay: Pyruvate kinase activity enzyme assay, recombinant enzyme (LDH-coupled, NADH depletion at 340 nm); format: biochemical; details: normalized to DMSO-treated PKM2 activity; for EC50: recombinant PKM2 20 nM; for Max Activation / Emax: recombinant PKM2; for Emax: read-out: Max Activation
T1 construct: purchased Sigma SAE0021
T1 sequence (P14618 whole entry): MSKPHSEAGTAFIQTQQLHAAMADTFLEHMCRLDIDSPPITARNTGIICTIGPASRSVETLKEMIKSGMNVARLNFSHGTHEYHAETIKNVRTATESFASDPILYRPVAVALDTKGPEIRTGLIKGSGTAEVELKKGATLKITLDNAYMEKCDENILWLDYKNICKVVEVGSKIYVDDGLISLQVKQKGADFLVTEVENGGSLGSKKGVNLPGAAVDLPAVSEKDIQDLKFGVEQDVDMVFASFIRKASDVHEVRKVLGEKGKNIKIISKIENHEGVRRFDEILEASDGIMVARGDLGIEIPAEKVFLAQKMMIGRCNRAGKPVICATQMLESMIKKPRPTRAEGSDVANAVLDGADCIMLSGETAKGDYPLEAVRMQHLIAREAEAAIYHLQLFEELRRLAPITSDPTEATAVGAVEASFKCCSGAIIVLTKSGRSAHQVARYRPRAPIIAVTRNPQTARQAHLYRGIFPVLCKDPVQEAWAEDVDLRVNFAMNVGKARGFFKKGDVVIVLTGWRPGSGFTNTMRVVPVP
Experimental: Pyruvate Kinase Activity Enzyme Assay. Recombinant Enzyme. A continuous, enzyme-coupled assay, which uses lactate dehydrogenase (LDH) and measures the depletion of NADH via absorbance at 340 nm was utilized to determine the pyruvate kinase activity. For AC50 measurements (concentration of activator necessary to achieve half-maximal activation) with ML-265, assays were performed in 96-well format using 200 μL/well assay volume with final concentrations of 20 nM human recombinant PKM2 (Sigma, SAE0021), differing concentrations of ML-265, 0.5 mM PEP, 1 mM ADP, 0.2 mM NADH, and 8 U of lactate dehydrogenase (LDH) in an assay buffer of 50 mM Tris-HCl (pH 7.4), 100 mM KCl, and 5 mM MgCl2. The decrease in absorbance at 340 nm was monitored using a SPECTROstar Omega plate reader (BMG LABTECH Inc., Cary, NC, USA). Initial velocities were calculated with the MARS software. Data were normalized to DMSO (dimethyl sulfoxide)-treated PKM2 activity.

[1] = biological target: T2, pyruvate kinase activity, 661W cell line (Mus musculus, UniProt P52480); assay: Pyruvate kinase activity in 661W cell lysates after 2 hours treatment; format: cell-based; details: 661W cells, 2 hours incubation, activity normalized to total protein; for Emax: read-out: Max Activation (cell)
T2 construct: endogenous in cells; host or cells: 661W cell line
T2 sequence (P52480 whole entry): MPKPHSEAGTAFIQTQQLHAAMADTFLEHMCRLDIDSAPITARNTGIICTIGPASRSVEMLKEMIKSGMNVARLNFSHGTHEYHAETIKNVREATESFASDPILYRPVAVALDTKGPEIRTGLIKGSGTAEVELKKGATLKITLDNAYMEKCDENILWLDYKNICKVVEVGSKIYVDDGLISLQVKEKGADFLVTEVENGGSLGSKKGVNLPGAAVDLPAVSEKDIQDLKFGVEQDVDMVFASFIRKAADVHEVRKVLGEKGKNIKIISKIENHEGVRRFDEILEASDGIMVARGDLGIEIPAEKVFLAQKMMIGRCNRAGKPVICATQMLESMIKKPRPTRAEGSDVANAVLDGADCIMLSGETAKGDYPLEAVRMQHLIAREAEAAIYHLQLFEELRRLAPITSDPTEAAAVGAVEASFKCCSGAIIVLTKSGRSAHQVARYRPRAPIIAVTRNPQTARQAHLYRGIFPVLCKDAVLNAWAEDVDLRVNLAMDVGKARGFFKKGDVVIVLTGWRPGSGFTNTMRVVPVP
Experimental: Cell culture. For 661W cell line experiments, media was replaced prior to the start of treatment with DMSO or ML-265. Cells were incubated with DMSO or different concentrations of ML-265 for 2 hours. Cells were lysed and homogenized in RIPA Lysis and Extraction Buffer (Catalog number: 89900, Life Technologies Corporation, Grand Island, NY) with protease inhibitors (Complete-Mini, Roche Diagnostics, Indianapolis, IN) and cellular debris was removed by centrifugation at 10,000 rpm for 10 minutes. Ten microliters of the supernatant was used to assess pyruvate kinase activity, and the activity was normalized to total protein content as previously described.

Molecule | EC50 (human recombinant PKM2) | Max Activation (human recombinant PKM2) | EC50 [1] | Max Activation (cell) [1] | Emax (human recombinant PKM2) | Emax [1]
3-((1H-pyrazol-3-yl)methyl)-7-41H-pyrazolo[4,3-c]pyridin-4-yl)oxy)-5-methyl-3,5-dihydro-4H-pyridazino[4,5-b]indol-4-one [Example 87] | 50 nM | 270% | 95 nM | 317% | – | –
Cc1ccc2c3cnn(Cc4ccccc4)c(=O)c3n(C)c2c1 [Example 1, 3-Benzyl-5,7-dimethyl-3,5-dihydro-4H-pyridazino[4,5-b]indol-4-one] | 117 nM | – | 15 nM | – | 212% | 431%
COc1ccc(Cn2ncc3c4ccc(C)cc4n(C)c3c2=O)cc1 [Example 2, 3-(4-Methoxybenzyl)-5,7-dimethyl-3,5-dihydro-4H-pyridazino[4,5-b]indol-4-one] | 106 nM | – | – | – | 90% | –
Cc1ccc2c3cnn(Cc4cccc(N)c4)c(=O)c3n(C)c2c1 [Example 3, 3-(3-Aminobenzyl)-5,7-dimethyl-3,5-dihydro-4H-pyridazino[4,5-b]indol-4-one] | 428 nM | – | 28 nM | – | 193% | 310%
CSc1ccc2c3cnn(Cc4ccccc4)c(=O)c3n(C)c2c1 [Example 4, 3-Benzyl-5-methyl-7-(methylthio)-3,5-dihydro-4H-pyridazino[4,5-b]indol-4-one] | 527 nM | – | 22 nM | – | 267% | 309%
Cn1c2cc([S+](C)[O-])ccc2c2cnn(Cc3ccccc3)c(=O)c21 (stereo not drawn) [Example 5, 3-Benzyl-5-methyl-7-(methylsulfinyl)-3,5-dihydro-4H-pyridazino[4,5-b]indol-4-one] | 192 nM | – | 13 nM | – | 226% | 295%
Cn1c2cc([S+](C)[O-])ccc2c2cnn(Cc3cccc(N)c3)c(=O)c21 (stereo not drawn) [Example 7, 3-(3-Aminobenzyl)-5-methyl-7-(methylsulfinyl)-3,5-dihydro-4H-pyridazino[4,5-b]indol-4-one] | 63 nM | – | 18 nM | – | 222% | 355%
COc1ccc2c3cnn(Cc4cccc(N)c4)c(=O)c3n(C)c2c1 [Example 8, 3-(3-Aminobenzyl)-7-methoxy-5-methyl-3,5-dihydro-4H-pyridazino[4,5-b]indol-4-one] | 117 nM | – | 25 nM | – | 271% | 324%
COc1ccc2c3cnn(Cc4cn5ccccc5n4)c(=O)c3n(C)c2c1 [Example 11, 3-(Imidazo[1,2-a]pyridin-2-ylmethyl)-7-methoxy-5-methyl-3,5-dihydro-4H-pyridazino[4,5-b]indol-4-one] | 110 nM | – | – | – | 170% | –
COc1ccc2c3cnn(Cc4ccc5ncccc5c4)c(=O)c3n(C)c2c1 [Example 12, 7-Methoxy-5-methyl-3-(quinolin-6-ylmethyl)-3,5-dihydro-4H-pyridazino[4,5-b]indol-4-one] | 131 nM | – | – | – | 123% | –
Cn1c2cc(O)ccc2c2cnn(Cc3cccc(N)c3)c(=O)c21 [Example 15, 3-(3-Aminobenzyl)-7-hydroxy-5-methyl-3,5-dihydro-4H-pyridazino[4,5-b]indol-4-one] | 40 nM | – | 124 nM | – | 254% | 296%
Cc1cc2c3cnn(Cc4ccccc4F)c(=O)c3n(C)c2s1 [Example 16, 6-(2-Fluorobenzyl)-2,8-dimethyl-6,8-dihydro-7H-thieno[3′,2′:4,5]pyrrolo[2,3-d]pyridazin-7-one] | 40 nM | – | 58 nM | – | 231% | 279%
Cc1ccc2c3cnn(Cc4cccc(F)c4)c(=O)c3n(C)c2n1 [Example 18, 7-(3-fluorobenzyl)-2,9-dimethyl-7,9-dihydro-8H-pyrido[3′,2′:4,5]pyrrolo[2,3-d]pyridazin-8-one] | 41 nM | – | 23 nM | – | 264% | 292%
COc1cc2c(cc1F)c1cnn(Cc3cccc(N)c3)c(=O)c1n2C [Example 20, 3-(3-aminobenzyl)-8-fluoro-7-methoxy-5-methyl-3,5-dihydro-4H-pyridazino[4,5-b]indol-4-one] | 15 nM | – | 67 nM | – | 199% | 229%
Cn1c2cc(O)c(F)cc2c2cnn(Cc3cccc(N)c3)c(=O)c21 [Example 21, 3-(3-aminobenzyl)-8-fluoro-7-hydroxy-5-methyl-3,5-dihydro-4H-pyridazino[4,5-b]indol-4-one] | 25 nM | – | 75 nM | – | 299% | 273%
COc1cccc2c3cnn(Cc4cccc(N)c4)c(=O)c3n(C)c12 [Example 23, 3-(3-aminobenzyl)-6-methoxy-5-methyl-3,5-dihydro-4H-pyridazino[4,5-b]indol-4-one] | 22 nM | – | 33 nM | – | 196% | 288%
COc1ccc2c(c1)c1cnn(Cc3cccc(N)c3)c(=O)c1n2C [Example 27, 3-(3-aminobenzyl)-8-methoxy-5-methyl-3,5-dihydro-4H-pyridazino[4,5-b]indol-4-one] | 26 nM | – | – | – | 307% | –
COc1cc2c(cc1F)c1cnn(Cc3cccc(C)n3)c(=O)c1n2C [Example 52, 8-fluoro-7-methoxy-5-methyl-3-((6-methylpyridin-2-yl)methyl)-3,5-dihydro-4H-pyridazino[4,5-b]indol-4-one] | 97 nM | – | 66 nM | – | 225% | 305%
COc1cc2c(cc1F)c1cnn(Cc3cccc(N)c3)c(=O)c1n2C [Example 53, 3-(3-aminobenzyl)-8-fluoro-7-methoxy-5-methyl-3,5-dihydro-4H-pyridazino[4,5-b]indol-4-one] | 15 nM | 199% | 37 nM | 229% | – | –
Cn1c2cc(O)c(F)cc2c2cnn(Cc3cccc(N)c3)c(=O)c21 [Example 54, 3-(3-aminobenzyl)-8-fluoro-7-hydroxy-5-methyl-3,5-dihydro-4H-pyridazino[4,5-b]indol-4-one] | 53 nM | 299% | 75 nM | 273% | – | –
Cc1cccc(Cn2ncc3c4cc(Oc5ccc6[nH]ncc6n5)ccc4n(C)c3c2=O)n1 [Example 60, 8-((1H-pyrazolo[4,3-b]pyridin-5-yl)oxy)-5-methyl-3-((6-methylpyridin-2-yl)methyl)-3,5-dihydro-4H-pyridazino[4,5-b]indol-4-one] | 67 nM | – | 54 nM | – | 243% | 334%
Cc1cccc(Cn2ncc3c4ccc(Oc5ccc6[nH]ncc6n5)cc4n(C)c3c2=O)n1 [Example 62, 7-((1H-pyrazolo[4,3-b]pyridin-5-yl)oxy)-5-methyl-3-((6-methylpyridin-2-yl)methyl)-3,5-dihydro-4H-pyridazino[4,5-b]indol-4-one] | 82 nM | – | 134 nM | – | 221% | 376%
Cc1cccc(Cn2ncc3c4ccc(Oc5cccc(O)n5)cc4n(C)c3c2=O)n1 [Example 63, 7-((6-hydroxypyridin-2-yl)oxy)-5-methyl-3-((6-methylpyridin-2-yl)methyl)-3,5-dihydro-4H-pyridazino[4,5-b]indol-4-one] | 31 nM | – | 78 nM | – | 219% | 302%
